Measured values: ChEMBL document CHEMBL1949602, “Bacterial biofilm formation inhibitory activity revealed for plant derived natural compounds” (Bioorg Med Chem, 2012)
Converted amounts (≈) assume the structure as drawn. The source made the active and inactive calls. No cut-off for these calls is given here.

Key:
[1] = test system: Staphylococcus epidermidis; test: Antibacterial activity against Staphylococcus epidermidis ATCC 35984 assessed as inhibition of biofilm formation after 24 hrs by crystal violet staining; format: functional, organism-based; settings: ATCC 35984, 24 h
[2] = test system: Staphylococcus epidermidis; test: Antibacterial activity against Staphylococcus epidermidis ATCC 35984 by broth microdilution method; format: functional
[3] = test system: Staphylococcus epidermidis; test: Antibacterial activity against Staphylococcus epidermidis ATCC 35984 assessed as inhibition of planktonic growth at sub-MIC measured up to 25 hrs; format: functional, organism-based
Staphylococcus aureus [4] = test: Antibacterial activity against Staphylococcus aureus ATCC 6538P by broth microdilution method; format: functional
Staphylococcus aureus [5] = test: Antibacterial activity against Staphylococcus aureus ATCC 6538P incubated in drug free medium for 18 hrs after MIC determination by broth microdilution method; format: functional
[6] = test system: Staphylococcus epidermidis; test: Antibacterial activity against Staphylococcus epidermidis ATCC 35984 assessed as modification of bacterial surface protein pattern at 14 uM by zymographic analysis; format: functional, organism-based
Staphylococcus aureus [7] = test: Antibacterial activity against Staphylococcus aureus ATCC 6538P assessed as inhibition of biofilm formation after 24 hrs by crystal violet staining; format: functional, organism-based
Staphylococcus aureus [8] = test: Antibacterial activity against Staphylococcus aureus ATCC 6538P assessed as change in bacterial surface protein level at sub-MIC by zymographic analysis; format: functional, organism-based
Staphylococcus aureus [9] = test: Antibacterial activity against Staphylococcus aureus ATCC 6538P assessed as inhibition of planktonic growth at sub-MIC measured up to 25 hrs; format: functional, organism-based
Staphylococcus aureus [10] = test: Antibacterial activity against Staphylococcus aureus ATCC 6538P assessed as change in bacterial surface protein level at sub-MIC by SDS-PAGE analysis; format: functional, organism-based
[11] = test system: Staphylococcus epidermidis; test: Antibacterial activity against Staphylococcus epidermidis ATCC 35984 incubated in drug free medium for 18 hrs after MIC determination by broth microdilution method; format: functional; settings: ATCC 35984, 18 h
[12] = test system: Staphylococcus epidermidis; test: Antibacterial activity against Staphylococcus epidermidis ATCC 35984 assessed as disappearance of bacterial surface proteins level at sub-MIC by zymographic analysis; format: functional, organism-based
[13] = test system: Staphylococcus epidermidis; test: Antibacterial activity against Staphylococcus epidermidis ATCC 35984 assessed as disappearance of bacterial surface protein level at sub-MIC by SDS-PAGE analysis; format: functional, organism-based
[14] = test system: Staphylococcus epidermidis; test: Antibacterial activity against Staphylococcus epidermidis ATCC 35984 assessed as modification of bacterial surface protein pattern at 4 uM by zymographic analysis; format: functional, organism-based
[15] = test system: Staphylococcus epidermidis; test: Antibacterial activity against Staphylococcus epidermidis ATCC 35984 assessed as modification of bacterial surface protein pattern at 8 uM by zymographic analysis; format: functional, organism-based
[16] = Ratio of MIC for Staphylococcus aureus ATCC 6538P to MIC for Staphylococcus epidermidis ATCC 35984; format: functional

In the case of Oc1ccc(-c2cc3ccccc3o2)c(O)c1, the EC50 [1] is reported as 23.5 µM, the MIC [2] is reported as 55.3 µM (≈ 12.5 µg/mL) and the Activity [3] is reported as “inactive”. The MIC (Staphylococcus aureus [4]) was 55.3 µM (≈ 12.5 µg/mL), the MBC (Staphylococcus aureus [5]) was 55.3 µM (≈ 12.5 µg/mL) and the Activity [6] was “inactive”. The EC50 (Staphylococcus aureus [7]) was 8.2 µM, the Activity (Staphylococcus aureus [8]) was “inactive” and the Activity (Staphylococcus aureus [9]) was “inactive”. The Activity (Staphylococcus aureus [10]) was “inactive” and the MBC [11] was 55.3 µM (≈ 12.5 µg/mL).
In the case of Oc1cc(O)c2c(c1)O[C@@]1(c3ccc(O)c(O)c3)Oc3cc(O)c4c(c3[C@@H]2[C@H]1O)O[C@H](c1ccc(O)c(O)c1)[C@H](O)C4 [PROANTHOCYANIDIN A2], the EC50 [1] is reported as 7.6 µM, the MIC [2] is reported as over 169 µM and the Activity [3] is reported as “inactive”. The MIC (Staphylococcus aureus [4]) was over 169 µM, the MBC (Staphylococcus aureus [5]) was over 169 µM and the EC50 (Staphylococcus aureus [7]) was 6.9 µM. For the same compound, the Activity [12] was “Active”, the Activity (Staphylococcus aureus [8]) was “inactive” and the Activity (Staphylococcus aureus [9]) was “inactive”. For the same compound, the Activity [13] was “Active”, the Activity (Staphylococcus aureus [10]) was “inactive” and the MBC [11] was over 169 µM.
For COc1ccc2c(c[n+](C)c3c4cc5c(cc4ccc23)OCO5)c1OC [CHELERYTHRINE CHLORIDE], the EC50 [1] was 8.6 µM, the MIC [2] was 16.3 µM and the Activity [3] was “inactive”. It also gave an MIC (Staphylococcus aureus [4]) of 16.3 µM, an MBC (Staphylococcus aureus [5]) of over 260 µM and an EC50 (Staphylococcus aureus [7]) of 15.2 µM. For the same compound, the Activity (Staphylococcus aureus [8]) was “inactive”, the Activity (Staphylococcus aureus [9]) was “inactive” and the Activity [14] was “inactive”. For the same compound, the Activity (Staphylococcus aureus [10]) was “inactive” and the MBC [11] was over 260 µM.
For C[n+]1cc2c3c(ccc2c2ccc4cc5c(cc4c21)OCO5)OCO3 [SANGUINARIUM], the Activity [15] was “inactive”, the EC50 [1] was 4.4 µM and the MIC [2] was 8.5 µM. The Activity [3] was “inactive”, the MIC (Staphylococcus aureus [4]) was 34 µM and the MBC (Staphylococcus aureus [5]) was 34 µM. For the same compound, the EC50 (Staphylococcus aureus [7]) was 24.5 µM, the Activity (Staphylococcus aureus [8]) was “inactive” and the Ratio [16] was 4. The Activity (Staphylococcus aureus [9]) was “inactive”, the Activity [13] was “Active” and the Activity (Staphylococcus aureus [10]) was “inactive”. It also gave an MBC [11] of 34 µM.
